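All cell lines were grown in 96-well plates and treated with compound for 48 hours. Here, GI50 denotes the concentration required for 50% inhibition of growth.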 The source made the active and inactive calls. Cut-off read from the data, not from the text of the source: active = GI50 up to about 1.1 µM and inactive = higher.
Tests used:
Assay in all cases: NCI tumour cell line growth inhibition, 48 h
MDA-MB-231 = tested on: MDA-MB-231
SK-OV-3 = tested on: SK-OV-3
SNB-19 = tested on: SNB-19
CCRF-CEM = tested on: CCRF-CEM
LOX IMVI = tested on: LOX IMVI
RXF 393 = tested on: RXF 393
SNB-75 = tested on: SNB-75
Hs-578T = tested on: Hs-578T
NCI-H23 = tested on: NCI-H23
Malme-3M = tested on: Malme-3M
TK-10 = tested on: TK-10
PC-3 = tested on: PC-3
SW-620 = tested on: SW-620
MCF7 = tested on: MCF7
HOP-62 = tested on: HOP-62
HCT-116 = tested on: HCT-116
MDA-N = tested on: MDA-N
T47D = tested on: T47D
LXFL 529 = tested on: LXFL 529
SNB-78 = tested on: SNB-78

Row | Compound | GI50 (MDA-MB-231) | GI50 (SK-OV-3) | GI50 (SNB-19) | GI50 (CCRF-CEM) | GI50 (LOX IMVI) | GI50 (RXF 393) | GI50 (SNB-75) | GI50 (Hs-578T) | GI50 (NCI-H23) | GI50 (Malme-3M) | GI50 (TK-10) | GI50 (PC-3) | GI50 (SW-620) | GI50 (MCF7) | GI50 (HOP-62) | GI50 (HCT-116) | GI50 (MDA-N) | GI50 (T47D) | GI50 (LXFL 529) | GI50 (SNB-78)
1 | COc1cccc(C2c3cc4c(cc3OC(N3CCCCC3)C2C)OCO4)c1O (stereo not drawn) | 11.2 µM (inactive) | 6.79 µM (inactive) | 7.93 µM (inactive) | 2.4 µM (inactive) | 5.21 µM (inactive) | 3.25 µM (inactive) | 5.41 µM (inactive) | 3.63 µM (inactive) | 7.31 µM (inactive) | 4.53 µM (inactive) | 13.8 µM (inactive) | 4.83 µM (inactive) | 3.97 µM (inactive) | 5.6 µM (inactive) | 4.11 µM (inactive) | 4.89 µM (inactive) | 2.3 µM (inactive) | 8.38 µM (inactive) |  | 
2 | COc1ccc(NC(=O)CC/C(CC(=O)c2ccco2)=N/NC(=O)C(N)=O)cc1 |  | > 100 µM (inactive) | 56.8 µM (inactive) | 63.5 µM (inactive) | > 100 µM (inactive) | 61.9 µM (inactive) | 97.5 µM (inactive) |  | 38.3 µM (inactive) | 98.9 µM (inactive) | > 100 µM (inactive) |  | > 100 µM (inactive) |  | > 100 µM (inactive) |  |  |  | 65.5 µM (inactive) | 
3 | COC(=O)c1cc(=O)nc2cc3cccccc3n12 |  | > 100 µM (inactive) | > 100 µM (inactive) | > 100 µM (inactive) | > 100 µM (inactive) | > 100 µM (inactive) | > 100 µM (inactive) |  | > 100 µM (inactive) | > 100 µM (inactive) | > 100 µM (inactive) |  | > 100 µM (inactive) |  | > 100 µM (inactive) | > 100 µM (inactive) |  |  | > 100 µM (inactive) | 
4 | CCOC(=O)CC1=Nc2ccccc2SC1 |  |  | > 100 µM (inactive) |  | > 100 µM (inactive) | > 100 µM (inactive) | > 100 µM (inactive) |  | > 100 µM (inactive) | > 100 µM (inactive) | > 100 µM (inactive) |  | > 100 µM (inactive) |  | > 100 µM (inactive) | > 100 µM (inactive) |  |  | > 100 µM (inactive) | > 100 µM (inactive)
5 | N/N=c1/nc2n(c3ncccc13)C=CNN2 |  | > 100 µM (inactive) | > 100 µM (inactive) | > 100 µM (inactive) | > 100 µM (inactive) | > 100 µM (inactive) |  |  | > 100 µM (inactive) | > 100 µM (inactive) | > 100 µM (inactive) |  | > 100 µM (inactive) |  | > 100 µM (inactive) | > 100 µM (inactive) |  |  | > 100 µM (inactive) | 
6 | Cc1cc(C)nc(NS(=O)(=O)c2ccc(Nc3c4ccccc4nc4c(C(=O)NCCN(C)C)ccc(Cl)c34)cc2)n1 |  |  | 1.45 µM (inactive) | 1.31 µM (inactive) | 0.711 µM (active) | 2.09 µM (inactive) | 2.59 µM (inactive) |  | 2.43 µM (inactive) |  | 5.07 µM (inactive) |  | 0.679 µM (active) |  | 2.85 µM (inactive) | 0.798 µM (active) |  |  | 1.11 µM (active) | 8.3 µM (inactive)
7 | COCC1C(=O)c2cc3c(cc2C12C=CC1(C=C2)OCCO1)OCO3 (stereo not drawn) |  | 16.1 µM (inactive) |  | 0.583 µM (active) |  | 8.85 µM (inactive) | 14.9 µM (inactive) |  | 12.5 µM (inactive) | 13.8 µM (inactive) | 20.6 µM (inactive) |  | 2.48 µM (inactive) |  | 21.6 µM (inactive) | 2.21 µM (inactive) |  |  | 2.49 µM (inactive) | 
8 | CC(=O)CCC1(c2ccccc2)OC(=O)C(C#N)=C1c1ccccc1 (stereo not drawn) |  | > 100 µM (inactive) | > 100 µM (inactive) | 43.5 µM (inactive) | > 100 µM (inactive) |  | 29.4 µM (inactive) |  | > 100 µM (inactive) | > 100 µM (inactive) | > 100 µM (inactive) |  | > 100 µM (inactive) |  | > 100 µM (inactive) | 47.6 µM (inactive) |  |  | 59.4 µM (inactive) | > 100 µM (inactive)
9 | O=C(/C(=C\c1ccc(Cl)cc1)c1ccccc1)c1ccccc1 |  | > 100 µM (inactive) |  | > 100 µM (inactive) | 29.9 µM (inactive) |  | 88.9 µM (inactive) |  | 72.6 µM (inactive) | 57 µM (inactive) | > 100 µM (inactive) |  | 57.8 µM (inactive) |  | 63.2 µM (inactive) | 29.7 µM (inactive) |  |  | 55.5 µM (inactive) | > 100 µM (inactive)
10 | COc1c(C)cc2c(c1O)C1C3[C@H]4SC[C@@]5(NCCC6=C5NC5C=CC=CC65)C(=O)OCC(c5c6c(c(C)c(OC(C)=O)c54)OCO6)N3[C@@H](O)C(C2)N1C (stereo partly drawn) |  |  | < 0.01 µM (active) | < 0.01 µM (active) | < 0.01 µM (active) | < 0.01 µM (active) | < 0.01 µM (active) |  | < 0.01 µM (active) | < 0.01 µM (active) | < 0.01 µM (active) |  | < 0.01 µM (active) |  | < 0.01 µM (active) | < 0.01 µM (active) |  |  | < 0.01 µM (active) | 
11 | NC1=NS(=O)(=O)Nc2nc(-c3ccc([N+](=O)[O-])cc3)[nH]c21 |  | > 100 µM (inactive) | > 100 µM (inactive) | > 100 µM (inactive) | > 100 µM (inactive) | > 100 µM (inactive) | > 100 µM (inactive) |  | > 100 µM (inactive) | > 100 µM (inactive) | > 100 µM (inactive) |  | > 100 µM (inactive) |  | > 100 µM (inactive) | > 100 µM (inactive) |  |  | > 100 µM (inactive) | 
12 | C[C@]12CCC3c4ccc(O)cc4CC[C@H]3C1CC(=O)N(CCN1CCCC1)C2=O (stereo partly drawn) | > 10 µM (inactive) | > 10 µM (inactive) | > 10 µM (inactive) | > 10 µM (inactive) | > 10 µM (inactive) | > 10 µM (inactive) | 7.96 µM (inactive) | > 10 µM (inactive) | > 10 µM (inactive) | > 10 µM (inactive) | > 10 µM (inactive) | > 10 µM (inactive) | > 10 µM (inactive) | > 10 µM (inactive) | > 10 µM (inactive) | > 10 µM (inactive) | > 10 µM (inactive) | > 10 µM (inactive) |  | 
13 | NC(CSSCC(N)Cc1ccccc1)Cc1ccccc1 (stereo not drawn) |  | 85.7 µM (inactive) | > 100 µM (inactive) | 32.9 µM (inactive) | 29.7 µM (inactive) |  | > 10 µM (inactive) |  | 44.4 µM (inactive) | 57.3 µM (inactive) | > 100 µM (inactive) |  | 31.6 µM (inactive) |  | > 100 µM (inactive) | 35.2 µM (inactive) |  |  | 36.1 µM (inactive) | > 100 µM (inactive)
14 | Cc1cc(Br)cc(C)c1NC(=O)C(=O)C(C(=O)c1ccncc1)C1OC(=O)c2ccccc21 (stereo not drawn) |  | > 100 µM (inactive) | > 100 µM (inactive) | > 100 µM (inactive) | > 100 µM (inactive) | > 100 µM (inactive) |  |  | > 100 µM (inactive) | > 100 µM (inactive) | > 100 µM (inactive) |  | > 100 µM (inactive) |  | > 100 µM (inactive) | > 100 µM (inactive) |  |  | > 100 µM (inactive) | > 100 µM (inactive)
15 | c1ccc(/N=C2\c3ccccc3CN2c2ccccc2)cc1 | > 100 µM (inactive) | > 100 µM (inactive) | > 100 µM (inactive) | > 100 µM (inactive) | > 100 µM (inactive) | > 100 µM (inactive) | 74.3 µM (inactive) | > 100 µM (inactive) | > 100 µM (inactive) | > 100 µM (inactive) | > 100 µM (inactive) | > 100 µM (inactive) | > 100 µM (inactive) | > 100 µM (inactive) | > 100 µM (inactive) | > 100 µM (inactive) | > 100 µM (inactive) | 80.2 µM (inactive) |  | 
16 | CCOC1=NC(=O)CC(c2ccccc2)S1 (stereo not drawn) |  |  | > 100 µM (inactive) | 69.3 µM (inactive) | > 100 µM (inactive) | 36.4 µM (inactive) |  |  |  | > 100 µM (inactive) |  |  | > 100 µM (inactive) |  |  | > 100 µM (inactive) |  |  | > 100 µM (inactive) | > 100 µM (inactive)
17 | COCN1COCN(C)C1=O |  | > 100 µM (inactive) | > 100 µM (inactive) | > 100 µM (inactive) | > 100 µM (inactive) |  | > 100 µM (inactive) |  | > 100 µM (inactive) | > 100 µM (inactive) | > 100 µM (inactive) |  | > 100 µM (inactive) |  | > 100 µM (inactive) | > 100 µM (inactive) |  |  |  | > 100 µM (inactive)
18 | CC[C@@]1(O)CC(OC2CC(N3CCOCC3)C(O)C(C)O2)c2c(O)c3c(c(O)c2[C@H]1O)C(=O)c1cccc(O)c1C3=O (stereo partly drawn) | 0.348 µM (active) | 0.126 µM (active) | 0.127 µM (active) | 0.0379 µM (active) | 0.0644 µM (active) | 0.196 µM (active) | 0.139 µM (active) | 0.348 µM (active) | 0.175 µM (active) | 0.0502 µM (active) | 0.452 µM (active) | 0.0957 µM (active) | 0.0469 µM (active) | 0.0293 µM (active) | 0.0679 µM (active) | 0.0519 µM (active) | 0.131 µM (active) | 0.179 µM (active) |  | 0.305 µM (active)
19 | COC1(OC)C[C@H](C)[C@@]23O[C@]24C2=CC(=O)C=CC2=N[C@H]3C#C/C=C\C#C[C@]14O | 0.621 µM (active) | 1.36 µM (inactive) | 1.55 µM (inactive) | 0.044 µM (active) | 0.3 µM (active) | 0.537 µM (active) | 0.133 µM (active) | 0.904 µM (active) | 0.411 µM (active) | 0.671 µM (active) | 0.893 µM (active) | 0.753 µM (active) | 0.415 µM (active) | 0.276 µM (active) | 0.787 µM (active) | 0.364 µM (active) | 1.08 µM (active) | 0.427 µM (active) |  | 
20 | Cc1cn(C2CC(N(O)Cc3ccccc3)C(CO)O2)c(=O)[nH]c1=O (stereo not drawn) |  | > 100 µM (inactive) | > 100 µM (inactive) | > 100 µM (inactive) | > 100 µM (inactive) | > 100 µM (inactive) | > 100 µM (inactive) |  | > 100 µM (inactive) |  | > 100 µM (inactive) |  | > 100 µM (inactive) |  | > 100 µM (inactive) | > 100 µM (inactive) |  |  | > 100 µM (inactive) | > 100 µM (inactive)
